# Measured values published in ChEMBL document CHEMBL4813909, “Heterocyclic Diamidine DNA Ligands as HOXA9 Transcription Factor Inhibitors: Design, Molecular Evaluation, and Cellular Consequences in a HOXA9-Dependant Leukemia Cell Model” (J Med Chem, 2019).
# Activity calls are given as the source filed them. No cut-off for these calls is given here.
# Tests used:
# [1] = Drug localization in nucleus of human HT-29 cells at 5 uM incubated for 16 hrs by DiOC6/propidium iodide staining based by fluorescence microscopy; format: ADME, subcellular; details: ht-29, 16 h
# [2] = Induction of cell death in mouse MigA9 cells harboring mouse Hoxa9 gene assessed as propidium iodide-positive cells at 15 uM incubated for 24 hrs by propidium iodide staining based flow cytometry (reference value: 9.06 +/- 0.53%); format: functional; details: dose 15 µM; time 24 hrs
# [3] = Induction of cell death in mouse MigA9 cells harboring mouse Hoxa9 gene assessed as propidium iodide-positive cells at 20 uM incubated for 24 hrs by propidium iodide staining based flow cytometry (reference value: 9.06 +/- 0.53%); format: functional; details: dose 20 µM; time 24 hrs
# [4] = Induction of cell cycle arrest in mouse MigA9 cells harboring mouse Hoxa9 gene assessed as accumulation at sub-G1 phase at 20 uM incubated for 48 hrs by propidium iodide staining based flow cytometry (reference value: 0.76 +/- 0.1%); format: functional
# [5] = target: Homeobox protein Hox-A9 (Mus musculus) (UniProt P09631); assay: Inhibition of HOXA9 in mouse MigA9 cells assessed as induction of nuytten-ezh2-targets-up genes by gene set enrichment analysis; format: cell-based
# Sequence of Homeobox protein Hox-A9 (Mus musculus) (P09631 whole entry, the tested form may be a part): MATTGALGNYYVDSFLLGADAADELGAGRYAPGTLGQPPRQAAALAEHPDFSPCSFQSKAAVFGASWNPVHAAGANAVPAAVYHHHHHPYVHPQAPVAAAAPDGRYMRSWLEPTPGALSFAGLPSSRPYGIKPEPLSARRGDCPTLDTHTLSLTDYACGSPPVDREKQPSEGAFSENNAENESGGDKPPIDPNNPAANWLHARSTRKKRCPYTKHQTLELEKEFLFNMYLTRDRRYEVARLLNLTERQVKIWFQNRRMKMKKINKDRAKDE
# [6] = target: Homeobox protein Hox-A9 (Mus musculus) (UniProt P09631); assay: Inhibition of HOXA9 in mouse MigA9 cells assessed as induction of takeda- targets-of-nup98- hoxa9-fusion-8d-dn genes by gene set enrichment analysis; format: cell-based
# [7] = target: Homeobox protein Hox-A9 (Mus musculus) (UniProt P09631); assay: Inhibition of HOXA9 in mouse MigA9 cells assessed as induction of gal-leukemic stem cell-dn genes by gene set enrichment analysis; format: cell-based
# [8] = target: Homeobox protein Hox-A9 (Mus musculus) (UniProt P09631); assay: Inhibition of HOXA9 in mouse MigA9 cells assessed as induction of gabriely-mir21-targets gene by gene set enrichment analysis; format: cell-based
# [9] = target: Homeobox protein Hox-A9 (Mus musculus) (UniProt P09631); assay: Inhibition of HOXA9 in mouse MigA9 cells assessed as downregulation of martens-tretinoin-response-dn genes by gene set enrichment analysis; format: cell-based
# [10] = target: Homeobox protein Hox-A9 (Mus musculus) (UniProt P09631); assay: Inhibition of HOXA9 in mouse MigA9 cells assessed as downregulation of wang-immortalised-by-hoxa9-and meis1-up genes by gene set enrichment analysis; format: cell-based
# [11] = system: MigA9; assay: Induction of ITGAM gene in mouse MigA9 cells by ingenuity pathway analysis; format: functional, cell-based
# [12] = system: MigA9; assay: Induction of RGS10 gene in mouse MigA9 cells by ingenuity pathway analysis; format: functional, cell-based
# [13] = system: MigA9; assay: Induction of TP53 gene in mouse MigA9 cells by ingenuity pathway analysis; format: functional, cell-based
# [14] = system: MigA9; assay: Induction of CD47 gene in mouse MigA9 cells by ingenuity pathway analysis; format: functional, cell-based
# [15] = system: MigA9; assay: Induction of IGLL1/IGLL5 gene in mouse MigA9 cells by ingenuity pathway analysis; format: functional, cell-based
# [16] = system: MigA9; assay: Induction of PIM1 gene in mouse MigA9 cells by ingenuity pathway analysis; format: functional, cell-based
# [17] = system: MigA9; assay: Induction of TAC4 gene in mouse MigA9 cells by ingenuity pathway analysis; format: functional, cell-based
# [18] = system: MigA9; assay: Induction of AKAP13 gene in mouse MigA9 cells by ingenuity pathway analysis; format: functional, cell-based
# [19] = system: MigA9; assay: Downregulation of ARHGEF1 gene in mouse MigA9 cells by ingenuity pathway analysis; format: functional, cell-based
# [20] = system: MigA9; assay: Downregulation of CD74 gene in mouse MigA9 cells by ingenuity pathway analysis; format: functional, cell-based
# [21] = system: MigA9; assay: Upregulation of DICER1 gene in mouse MigA9 cells by ingenuity pathway analysis; format: functional, cell-based
# [22] = system: MigA9; assay: Upregulation of DNMT3A gene in mouse MigA9 cells by ingenuity pathway analysis; format: functional, cell-based
# [23] = system: MigA9; assay: Upregulation of E2F1 gene in mouse MigA9 cells by ingenuity pathway analysis; format: functional, cell-based
# [24] = system: MigA9; assay: Downregulation of FGF7 gene in mouse MigA9 cells by ingenuity pathway analysis; format: functional, cell-based
# [25] = system: MigA9; assay: Upregulation of ID1 gene in mouse MigA9 cells by ingenuity pathway analysis; format: functional, cell-based
# [26] = system: MigA9; assay: Downregulation of KLF2 gene in mouse MigA9 cells by ingenuity pathway analysis; format: functional, cell-based
# [27] = system: MigA9; assay: Upregulation of KLF3 gene in mouse MigA9 cells by ingenuity pathway analysis; format: functional, cell-based
# [28] = system: MigA9; assay: Upregulation of Ncoa6 gene in mouse MigA9 cells by ingenuity pathway analysis; format: functional, cell-based
# [29] = system: MigA9; assay: Downregulation of onecut1 gene in mouse MigA9 cells by ingenuity pathway analysis; format: functional, cell-based
# [30] = system: MigA9; assay: Downregulation of pim1 gene in mouse MigA9 cells by ingenuity pathway analysis; format: functional, cell-based
# [31] = system: MigA9; assay: Upregulation of rgs10 gene in mouse MigA9 cells by ingenuity pathway analysis; format: functional, cell-based
# [32] = system: MigA9; assay: Upregulation of tac4 gene in mouse MigA9 cells by ingenuity pathway analysis; format: functional, cell-based
# [33] = system: MigA9; assay: Upregulation of timp2 gene in mouse MigA9 cells by ingenuity pathway analysis; format: functional, cell-based
# [34] = system: MigA9; assay: Downregulation of CTSG gene in mouse MigA9 cells by ingenuity pathway analysis; format: functional, cell-based
# [35] = system: MigA9; assay: Upregulation of CEACAM1 gene in mouse MigA9 cells by ingenuity pathway analysis; format: functional, cell-based
# [36] = system: K562; assay: Anticlonogenic activity in human K562 cells assessed as K562 number at 2.5 uM incubated for 10 days by Methocult-colony forming cell assay relative to control; format: functional; details: time 10 day
# [37] = Stability in mouse MigA9 cells assessed as visibility of intrinsic fluorescence measured after 10 days by fluorescence microscopy; format: ADME, cell-based; details: miga9, 240 h, time 10 day
# [38] = system: HOXA9 DNA binding site; details: dose 0.5 µM
# [39] = system: HOXA9 DNA binding site; details: dose 1.0 µM
# [40] = system: HOXA9 DNA binding site [UNDEFINED MUTATION]
# [41] = system: HOXA9 DNA binding site [UNDEFINED MUTATION]; remark: listed apart in the source
# [42] = Induction of cell death in mouse MigA9 cells harboring mouse Hoxa9 gene assessed as propidium iodide-positive cells at 0.5 uM incubated for 24 hrs by propidium iodide staining based flow cytometry (reference value: 9.06 +/- 0.53%); format: functional
# [43] = Induction of cell death in mouse MigA9 cells harboring mouse Hoxa9 gene assessed as propidium iodide-positive cells at 1 uM incubated for 24 hrs by propidium iodide staining based flow cytometry relative to control; format: functional
# [44] = Induction of cell death in mouse MigA9 cells harboring mouse Hoxa9 gene assessed as propidium iodide-positive cells at 0.5 uM incubated for 48 hrs by propidium iodide staining based flow cytometry (reference value: 8.75 +/- 0.2%); format: functional
# [45] = Induction of cell death in mouse MigA9 cells harboring mouse Hoxa9 gene assessed as propidium iodide-positive cells at 1 uM incubated for 48 hrs by propidium iodide staining based flow cytometry (reference value: 8.75 +/- 0.2%); format: functional
# [46] = Induction of cell cycle arrest in mouse MigA9 cells harboring mouse Hoxa9 gene assessed as accumulation at sub-G1 phase at 0.5 uM incubated for 48 hrs by propidium iodide staining based flow cytometry (reference value: 0.76 +/- 0.1%); format: functional
# [47] = Induction of cell cycle arrest in mouse MigA9 cells harboring mouse Hoxa9 gene assessed as accumulation at sub-G1 phase at 1 uM incubated for 48 hrs by propidium iodide staining based flow cytometry (reference value: 0.76 +/- 0.1%); format: functional
# [48] = Drug localization in nucleus of mouse MigA9 cells at 20 uM incubated for 2 hrs by TO-PRO-3/propidium iodide staining based by fluorescence microscopy; format: ADME, subcellular; details: miga9, 2 h
# [49] = Induction of cell cycle arrest in mouse MigA9 cells expressing mouse Hoxa9 assessed as accumulation at G0/G1 phase at 0.5 uM incubated for 48 hrs by EdU/propidium iodide staining based flow cytometry (reference value: 48.77 +/- 0.19%); format: functional
# [50] = Induction of cell cycle arrest in mouse MigA9 cells expressing mouse Hoxa9 assessed as accumulation at G0/G1 phase at 1 uM incubated for 48 hrs by EdU/propidium iodide staining based flow cytometry (reference value: 48.77 +/- 0.19%); format: functional
# [51] = Induction of cell cycle arrest in mouse MigA9 cells expressing mouse Hoxa9 assessed as accumulation at S phase at 0.5 uM incubated for 48 hrs by EdU/propidium iodide staining based flow cytometry (reference value: 46.68 +/- 0.21%); format: functional
# [52] = Induction of cell cycle arrest in mouse MigA9 cells expressing mouse Hoxa9 assessed as accumulation at S phase at 1 uM incubated for 48 hrs by EdU/propidium iodide staining based flow cytometry (reference value: 46.68 +/- 0.21%); format: functional
# [53] = Induction of cell cycle arrest in mouse MigA9 cells expressing mouse Hoxa9 assessed as accumulation at G2/M phase at 0.5 uM incubated for 48 hrs by EdU/propidium iodide staining based flow cytometry (reference value: 4.55 +/- 0.16%); format: functional
# [54] = Induction of cell cycle arrest in mouse MigA9 cells expressing mouse Hoxa9 assessed as accumulation at G2/M phase at 1 uM incubated for 48 hrs by EdU/propidium iodide staining based flow cytometry (reference value: 4.55 +/- 0.16%); format: functional
# [55] = Cytotoxicity against mouse MigA9 cells harboring mouse Hoxa9 gene incubated for 72 hrs by MTS assay; format: functional, cell-based; details: MigA9, 72 h
# [56] = target: HOXA9 DNA binding site; assay: Binding affinity to hairpin DNA Hoxa9-binding site 5'-biotin-CCATGATTTACCTCTGTAAATCATGG (unknown origin) by surface plasmon resonance; format: nucleic-acid assay
# [57] = system: HOXA9 DNA binding site; assay: Inhibition of HOXA9 (unknown origin) expressed in reticulocyte lysate system binding to 32P-radiolabeled DNA Hoxa9-binding site (strand a-CTGCGATGATTTACGACCGC /strand b-GCGGTCGTAAATCATCGCAG) (unknown origin) assessed as HOXA9/DNA inhibition at 2.5 to 20 uM incubated for 20 mins by electrophoretic mobility shift assay relative to control; format: subcellular; details: dose 2.5-20 µM
# [58] = system: HOXA9 DNA binding site [UNDEFINED MUTATION]; assay: Binding affinity to DNA Hoxa9-binding site-5'-ATTTA mutant (strand a-CTGCGATGAGTCACGACCGC/strand b-GCGGTCGTGACTCATCGCAG) (unknown origin) by UV/visible spectrophotometric method; format: nucleic-acid assay
# [59] = system: HOXA9 DNA binding site [UNDEFINED MUTATION]; assay: Binding affinity to DNA Hoxa9-binding site-5'-ATTTA/5'ATGA double mutant (strand a-CTGCGTAGCGTCACGACCGC/strand b-GCGGTCGTGACGCTACGCAG) (unknown origin) by UV/visible spectrophotometric method; format: nucleic-acid assay
# [60] = Induction of spectral signal at wavelength at 1 to 10 uM by circular dichroism method; format: physicochemical; details: dose 1-10 µM
compound,measurement,setting,value
N=C(N)c1ccc(-c2ccc(-c3nc4ccc(C(=N)N)cc4[nH]3)s2)cc1,Drug transport,[1],Active
same,Activity,[2],13.5%
same,Activity,[3],21.07%
same,Activity,[4],12%
same,inhibition,[5],Active
same,inhibition,[6],Active
same,inhibition,[7],Active
same,inhibition,[8],Active
same,inhibition,[9],Active
same,inhibition,[10],Active
same,Activity,[11],Active
same,Activity,[12],Active
same,Activity,[13],Active
same,Activity,[14],Active
same,Activity,[15],Active
same,Activity,[16],Active
same,Activity,[17],Active
same,Activity,[18],Active
same,Activity,[19],Active
same,Activity,[20],Active
same,Activity,[21],Active
same,Activity,[22],Active
same,Activity,[23],Active
same,Activity,[24],Active
same,Activity,[25],Active
same,Activity,[26],Active
same,Activity,[27],Active
same,Activity,[28],Active
same,Activity,[29],Active
same,Activity,[30],Active
same,Activity,[31],Active
same,Activity,[32],Active
same,Activity,[33],Active
same,Activity,[34],Active
same,Activity,[35],Active
same,Activity,[36],100%
same,Stabilty,[37],Stable
same,ΔTm,[38],7 °C
same,ΔTm,[39],> 10 °C
same,ΔTm,[40],4 °C
same,ΔTm,[41],4 °C
N=C(Nc1ccc(-c2ccc(-c3ccc(NC(=N)c4ccccn4)cc3)[nH]2)cc1)c1ccccn1,Activity,[42],5.19%
same,Activity,[43],14.43%
same,Activity,[44],8.01%
same,Activity,[45],17.6%
same,Activity,[46],1.23%
same,Activity,[47],1.04%
same,Drug transport,[48],Active
same,Activity,[49],48.44%
same,Activity,[50],50.15%
same,Activity,[51],46.06%
same,Activity,[52],43.51%
same,Activity,[53],5.5%
same,Activity,[54],6.34%
N=C(N)c1cccc(-c2ccc(-c3nc4cc(C(=N)N)ccc4[nH]3)cc2)c1,IC50,[55],14.1 µM
same,Kd,[56],0.0055 µM
same,Activity,[2],3.87%
same,Activity,[3],5.17%
same,Activity,[4],1.65%
same,Activity,[36],100%
same,ΔTm,[38],7 °C
same,ΔTm,[39],> 10 °C
same,ΔTm,[40],4 °C
same,ΔTm,[41],4 °C
N=C(N)c1ccc(-c2ccc(-c3nc4cc(C(=N)N)ccc4o3)o2)cc1,IC50,[55],> 50 µM
same,Drug transport,[1],Active
same,inhibition,[57],inactive
same,Activity,[58],inactive
same,Activity,[59],inactive
same,Activity,[2],8.89%
same,Activity,[3],8.38%
same,Activity,[4],0.92%
same,Activity,[36],100%
same,Stabilty,[37],Stable
same,Activity,[60],Not Active
